In brackets after ≈: the same amount, converted by molar mass. Activity calls are given as the source filed them. The rule behind the calls is not given here.
Key:
A549 [1] = assay: Antiproliferative activity against human A549 cells assessed as cell growth inhibition rate at 20 ug/mL incubated for 48 hrs by MTT assay relative to control; format: functional; design: scale not given: the % may be the effect or the level left; settings: dose 20 µg/ml
A549 [2] = assay: Antiproliferative activity against human A549 cells assessed as cell growth inhibition incubated for 48 hrs by MTT assay; format: functional, cell-based; settings: A549, 48 h
A549 [3] = assay: Induction of apoptosis in human A549 cells assessed as inhibition of colony formation incubated for 10 days by crystal violet staining based assay; format: functional, cell-based; settings: dose 2.5-10 µM, time 10.0 day
A549 [4] = assay: Induction of apoptosis in human A549 cells assessed as irregular cell morphology at 2.5 to 10 uM incubated for 48 hrs by light microscopic analysis; format: functional, cell-based; settings: dose 2.5-10 µM
A549 [5] = assay: Antitumor activity against human A549 cells assessed as decrease in phosphorylation of Erk5 incubated for 48 hrs by Western blotting analysis; format: functional, cell-based; settings: dose 2.5-10 µM
A549 [6] = assay: Induction of apoptosis in human A549 cells assessed as formation of apoptotic bodies at 2.5 to 10 uM incubated for 48 hrs by DAPI staining based fluorescence microscopic analysis; format: functional, cell-based; settings: dose 2.5-10 µM
A549 [7] = assay: Induction of apoptosis in human A549 cells assessed as chromatin condensation at 2.5 to 10 uM incubated for 48 hrs by DAPI staining based fluorescence microscopic analysis; format: functional, cell-based; settings: dose 2.5-10 µM

## O=C(c1ccc(Cl)c(Cl)c1)N1CC=C(c2c[nH]c3ncccc23)CC1
A549 [1]
  Activity: 66.12%

## O=C(c1ccccc1F)N1CCC(c2c[nH]c3ncccc23)CC1
A549 [1]
  Activity: 48.02%

## Clc1ccc(CN2CCC(c3c[nH]c4ncccc34)CC2)cc1Cl
A549 [1]
  Activity: 32.22%

## Clc1ccccc1CN1CC=C(c2c[nH]c3ncccc23)CC1
A549 [1]
  Activity: 84.18%
A549 [2]
  IC50: 12 µg/mL (≈ 37 µM)

## Clc1ccc(CN2CC=C(c3c[nH]c4ncccc34)CC2)cc1Cl
A549 [1]
  Activity: 80.28%
A549 [2]
  IC50: 7.33 µg/mL (≈ 20.5 µM)

## O=[N+]([O-])c1ccc(CN2CC=C(c3c[nH]c4ncccc34)CC2)cc1
A549 [1]
  Activity: 16.85%

## C1=C(c2c[nH]c3ccccc23)CCN(Cc2ccc3ccccc3c2)C1
A549 [1]
  Activity: 70.17%

## O=C(c1ccc2ccccc2c1)N1CC=C(c2c[nH]c3ncccc23)CC1
A549 [1]
  Activity: 62.25%

## Nc1ccc(C(=O)N2CC=C(c3c[nH]c4ncccc34)CC2)cc1
A549 [1]
  Activity: 45.12%

## Clc1ccc(CN2CC=C(c3c[nH]c4ccccc34)CC2)cc1Cl
A549 [1]
  Activity: 56.41%

## COc1ccc(CN2CC=C(c3c[nH]c4ncccc34)CC2)cc1
A549 [1]
  Activity: -3.33%

## O=C(c1ccc([N+](=O)[O-])cc1)N1CC=C(c2c[nH]c3ncccc23)CC1
A549 [1]
  Activity: 69.77%

## Clc1cccc(CN2CC=C(c3c[nH]c4ncccc34)CC2)c1
A549 [1]
  Activity: 52.55%

## Fc1ccc(CN2CC=C(c3c[nH]c4ncccc34)CC2)cc1
A549 [1]
  Activity: 43.89%

## Brc1ccc(CN2CC=C(c3c[nH]c4ncccc34)CC2)cc1
A549 [1]
  Activity: -25.78%

## FC(F)(F)c1ccc(CN2CC=C(c3c[nH]c4ncccc34)CC2)cc1
A549 [1]
  Activity: 44.64%

## FC(F)(F)Oc1ccc(CN2CC=C(c3c[nH]c4ncccc34)CC2)cc1
A549 [1]
  Activity: 46.56%

## O=C(c1ccccc1)N1CC=C(c2c[nH]c3ncccc23)CC1
A549 [1]
  Activity: 58.37%

## O=C(c1ccccc1F)N1CC=C(c2c[nH]c3ncccc23)CC1
A549 [1]
  Activity: 75.54%
A549 [2]
  IC50: 8.52 µg/mL (≈ 26.5 µM)

## C1=C(c2c[nH]c3ncccc23)CCN(Cc2ccc3ccccc3c2)C1
A549 [3]
  Activity: Dose-Dependent Effect
A549 [1]
  Activity: 90.08%
A549 [4]
  Activity: Active
A549 [5]
  Activity: Dose-Dependent Effect
A549 [2]
  IC50: 4.56 µg/mL (≈ 13.4 µM)
A549 [6]
  Activity: Active
A549 [7]
  Activity: Active

## COc1ccc(C(=O)N2CC=C(c3c[nH]c4ncccc34)CC2)cc1
A549 [1]
  Activity: 70.89%
A549 [2]
  IC50: 10.4 µg/mL (≈ 31.3 µM)

## S=C(c1ccc(Cl)cc1)N1CC=C(c2c[nH]c3ncccc23)CC1
A549 [1]
  Activity: 51.43%

## O=C(c1ccccc1Cl)N1CC=C(c2c[nH]c3ncccc23)CC1
A549 [1]
  Activity: 52.62%

## Fc1ccccc1CN1CC=C(c2c[nH]c3ncccc23)CC1
A549 [1]
  Activity: 3.55%

## c1ccc2cc(CN3CCC(c4c[nH]c5ncccc45)CC3)ccc2c1
A549 [1]
  Activity: 76.69%

## O=C(c1ccc(Cl)cc1)N1CC=C(c2c[nH]c3ncccc23)CC1
A549 [3]
  Activity: Dose-Dependent Effect
A549 [1]
  Activity: 82.78%
A549 [4]
  Activity: Active
A549 [5]
  Activity: Dose-Dependent Effect
A549 [2]
  IC50: 6.23 µg/mL (≈ 18.4 µM)
A549 [6]
  Activity: Active
A549 [7]
  Activity: Active

## Fc1ccccc1C(=S)N1CC=C(c2c[nH]c3ncccc23)CC1
A549 [1]
  Activity: 65.92%

## Cc1ccc(CN2CC=C(c3c[nH]c4ncccc34)CC2)cc1
A549 [1]
  Activity: 54.95%

## O=C(c1ccc(Cl)cc1)N1CCC(c2c[nH]c3ncccc23)CC1
A549 [1]
  Activity: 50.17%

## N#Cc1ccc(CN2CC=C(c3c[nH]c4ncccc34)CC2)cc1
A549 [1]
  Activity: 9.76%

## O=C(c1ccc(F)cc1)N1CC=C(c2c[nH]c3ncccc23)CC1
A549 [1]
  Activity: 59.94%

## N#Cc1ccc(C(=O)N2CC=C(c3c[nH]c4ncccc34)CC2)cc1
A549 [1]
  Activity: 21.45%

## O=C(c1ccccc1F)N1CC=C(c2c[nH]c3ccccc23)CC1
A549 [1]
  Activity: 50.26%

## O=C(c1ccc(Br)cc1)N1CC=C(c2c[nH]c3ncccc23)CC1
A549 [1]
  Activity: 71.11%
A549 [2]
  IC50: 11 µg/mL (≈ 28.7 µM)

## C1=C(c2c[nH]c3ncccc23)CCN(Cc2ccccc2)C1
A549 [1]
  Activity: 44.74%

## O=C(c1ccc(C(F)(F)F)cc1)N1CC=C(c2c[nH]c3ncccc23)CC1
A549 [1]
  Activity: 65.74%

## Clc1ccc(CN2CC=C(c3c[nH]c4ncccc34)CC2)cc1
A549 [1]
  Activity: 0.74%

## Cc1ccc(C(=O)N2CC=C(c3c[nH]c4ncccc34)CC2)cc1
A549 [1]
  Activity: 41.24%

## O=C(c1cccc(Cl)c1)N1CC=C(c2c[nH]c3ncccc23)CC1
A549 [1]
  Activity: 73.66%
A549 [2]
  IC50: 10.3 µg/mL (≈ 30.6 µM)

## O=C(c1ccc(Cl)cc1)N1CC=C(c2c[nH]c3ccccc23)CC1
A549 [1]
  Activity: 67.52%

— ChEMBL document CHEMBL5390246, “Design, synthesis and SAR of novel 7-azaindole derivatives as potential Erk5 kinase inhibitor with anticancer activity” (Bioorg Med Chem, 2023)
